# Tests used:
# [1] = Kinetic catalyst(Kcat) was determined by Cyanylated APH(3')-IIa method
# [2] = Km was determined by Cyanylated APH(3')-IIa method
# [3] = Ratio of kinetic catalyst/Km was determined
# [4] = Kinetic constant(Kcat) was determined by native APH(3')-IIa method
# [5] = Michaelis constant was determined by native APH(3')-IIa method
smiles,measurement,setting,value
NC[C@H]1O[C@H](O[C@H]2[C@H](O)[C@@H](O)[C@H](N)C[C@@H]2N)[C@H](N)[C@@H](O)[C@@H]1O,Ratio,[1],1.3e+06 M⁻¹ s⁻¹
same,k cat,[1],9.93 s⁻¹
same,Km,[2],7.9 µM
same,Ratio,[3],2.4e+07 M⁻¹ s⁻¹
same,k cat,[4],29 s⁻¹
same,Km,[5],1.2 µM

# From ChEMBL document CHEMBL1130703, “The use of neamine as a molecular template: inactivation of bacterial antibiotic resistance enzyme aminoglycoside 3'-phosphotransferase type IIa” (Bioorg Med Chem Lett, 1998)
